These results are taken from patent EP0663826B1, “AMINO ACIDS CONTAINING PARENTERAL FORMULATIONS FOR THE TREATMENT OF HYPOTENSION AND RELATED PATHOLOGIES” (BOARD OF REGENTS THE UNIVERSITY OF TEXAS SYSTEM, priority 1991, dated 1993).

Several values for one entry are separate records, joined by “and”; a condition that tells them apart may be missing. Identical values can stand only once. Like-named read-outs stand apart in the source and are kept apart here. *1 amine or outer side, *2 acyl side, *3 side chain or, on linkers, in order; H or OH if unused. Where a SMILES comes first, the peptide text is derived from it. Bridges are numbered along the chain shown (N, C = ends). Roman numbers before positions name the chains, in order. [ ]: non-standard residue; d: D form. Actinocin(9to1) = Cc1c2oc3c(C)ccc(C(=O)[*:1])c3nc-2c(C(=O)[*:2])c(N)c1=O; NMeV = CN[C@H](C(=O)O)C(C)C; Sar = CNCC(=O)O

Series [1] in a line: Cell respiration assay (MTT). Type of series: cell-based. Particulars: rat, aortic smooth muscle cells; read-out: MTT reduction [mean ± SD], of that measured in control cells treated with IL-1 alone. (In general: Tetrazolium dyes change colour on reduction, which living cells bring about.)
Source text: The extent of reduction of MTT to formazan within cells, quantitated by measurement of the optical density at 550 nm (OD550), was taken as an indicator of cellular respiration.
The subject of series [2] is nitric oxide synthase in rat aortic smooth muscle cells. Kind of series: Induction and assay of nitrite synthesis in smooth muscle cells. Type of series: cell-based. The method, then: Rat aortic smooth muscle cells were incubated with RPMI-1640 medium containing 10% bovine calf serum, 25 mM HEPES buffer (pH 7.4), 2 mM glutamine, […], and IL-1, IFN-γ, and various inhibitors at the concentrations indicated in the figure legends. At the desired times, nitrite concentration in the culture medium was measured using the standard Griess assay adapted to a 96-well microtiter plate reader.^36 The Griess assay is also described in Gross et al.^37 (1991). Thus, 100 µL of Griess reagent (0.5% sulfanilic acid, 0.05% naphthalenediamine, and 2.5% phosphoric acid) was added to an equal volume of culture medium, and the OD550 was measured and related to nitrite concentration by reference to a standard curve. […]
Rat aortic smooth muscle cells were incubated with RPMI-1640 medium containing 10% bovine calf serum, 25 mM HEPES buffer (pH 7.4), 2mM glutamine, 80 U/mL penicillin, 80 µg/mL streptomycin, 2 µg/mL fungizone, and IL-1, IFN-γ, and various inhibitors at the concentrations indicated in the figure legends. At the desired times, nitrite concentration in the culture medium was measured using the standard Griess assay (Green, L., et al. Anal. Biochem. 126:131-138, 1982) adapted to a 96-well microtiter plate reader (Gross, S.S., et al. Biochem. Biophys. Res. Commun. 178:823-829, 1991). […]

Series [3] relates to ET shock (lethal dose). Kind of series: Reversal of ET shock (lethal dose) by multiple doses of NAA. In kind it is in vivo. As for the experimental part:
The reversal of ET shock (lethal dose) by Nω-aminoarginine (NAA) for 4 hrs. […] Figure 8 depicts systemic arterial pressure (SAP) versus time (min). ET (2 mg/kg), a lethal dose, was infused over 60 min. and NAA administered at 97, 165, and 374 min. to maintain blood pressure. The animal was survived for 24 hours and then autopsied.

Series [4] concerns hypotension associated with the administration of TNF in the dog. Kind of series: TNF-induced hypotension in the dog. In kind it is in vivo, dogs. Particulars: dog; Figure 7. As for the experimental part: Recombinant human TNF, specific activity 2 x 10^7 units/mg, was from the Dainippon Chemical Corporation, Tokyo, Japan. TNF was administered at a dose of 10 µg//kg in a volume of 10 ml of phosphate buffered saline containing 17 mg/ml of dog albumin. […] Arginine was obtained from Sigma Chemical Company, St. Louis, Mo.
Four conditioned mongrel dogs, 2 males and 2 females, weighing 28 to 30 kg, were studied. Care of the animals were in accordance with the recommendations of the American Association for Accreditation of Laboratory Animals [DHEW(DHHS) publication no. (NIH) 78-23, revised, 1978]. On the day of the experiment, the dogs were fasted overnight. They were anesthetized with phenobarbital (25 mg/kg). The animals were then intubated orally with a #10 fr. endotracheal tube and ventilated with a Harvard pump ventilator at a rate of 14 breaths per minute and a tidal volume of 15 ml/kg. An arterial line was percutaneously placed in the femoral artery on the day of the experiment.
Mean (electronic) and phasic systemic arterial pressures (SAP) were continuously recorded on a Hewlett-Packard recording system (model 7758B) using strain gauge manometers (Hewlett-Packard model 1290A) which were connected to the arterial line. Heart rate (HR) was determined from an EKG tracing and continuously recorded on the Hewlett-Packard recording system. Oxyhemoglobin saturation (SaO2) was obtained using a pulse oximeter (BIOX 111, Boulder, CO). Continuous time-series records of SAP, HR, and SaO2 were obtained using a Lab Master analog-to-digital convertor (16 channel, 12 bit, 30 kHz; Scientific Solutions, Inc.) sampling at 55 Hz and storing the 6 sec averages on a magnetic disk.

For series [5], the system named is IL-1-Induced Hypotension in Dogs. Kind of series: IL-1-induced hypotension in dogs. Type of series: in vivo. Particulars: for MAP increase after NAA: NAA 20 mg/kg iv single bolus. The method, then:
• FIGURE 1 - Reversal of hypotension associated with the administration of IL-1 to dogs. The tracing shown is a representative experiment that was repeated four times. Each dog was anesthetized and […] as described herein, and baseline cardiovascular data were monitored for 30 minutes. IL-1 was dissolved in phosphate-buffered saline (pH 7.4) containing 1 mg/ml of dog albumin, and the resulting solution was infused intravenously for three minutes to deliver a dose of 50 µg/kg. MAP was continuously monitored; when a stable nadir was reached and maintained for more than 10 minutes or when MAP dropped below 50 mm Hg, NAA (20 mg/kg in 10 ml phosphate-buffered saline) was administered by intravenous infusion for 30 seconds. Sixty minutes after MAP was restored to baseline or higher values, L-arginine (400 mg/kg in 20 ml phosphate-buffered saline) was administered by slow intravenous infusion for 5 minutes. Anesthetized dogs given IL-1 (50 µg/kg) developed a progressive, moderately severe hypotension, with MAP decreasing from a baseline of 111 +/- 7 mm Hg to 80 +/- 2 mm Hg within about 3 hours. Hypotension was rapidly reversed by the intravenous administration of a single bolus dose of NAA (20 mg/kg, 88 umol/kg), with MAP increasing by from 46 +/- 9 mm Hg (58%_ to 125 +/- 8 mm Hg. • FIGURES 2A, 2B, 2C - Inhibition of IL-1-activated NO· production by N^ω-substituted arginine analogues. Figure 2A: Comparison of nitrite synthesis inhibition in smooth muscle cells by the L-isomers of NAA, NMA, and NNA and by the D-isomer of NMA. Figure 2B: Concentration dependence of nitrite synthesis inhibition in smooth muscle cells by NAA as a function of different L-arginine concentration in the culture medium. Confluent monolayers of smooth muscle cells in 96-well microtiter plates were treated with a combination of 100 ng/ml IL-1 and 50 ng/ml IFN-γ for 24 hours. Cells were then washed with Hanks' balanced salt solution, and fresh medium containing the indicated concentration of L-arginine was added. Points indicate means ± SD of nitrite production, expressed as percent of control, during a 16-hour exposure to arginine analogues (n = 3-4). Figure 2C: Effect of NAA on smooth muscle cell NO· synthase. Cytosol from cytokine-induced smooth muscle cells (∼2 µg protein) was incubated with 1 mM L-arginine, 0.5 mM NADPH, 1 mM dithiothreitol, 10 µM flavin-adenine dinucleotide, 10 µM tetrahydrobiopterin, and 0.1 U/ml dihydropteridine reductase in a total volume of 100 µL. The time course of Fe^2+-myoglobin oxidation was measured in the absence (control) or presence of 300 µM NAA (+NAA). […] FIGURE A: Time course of nitrite synthesis elicited by 40 ng/mL IL-1 alone (open circles) and by IL-1 in the presence of 50 ng/ml IFN-γ (open triangles). […] Inclusion of IL-1 receptor antagonist (40 µg/mL; filled symbols) in the culture medium inhibited nitrite production stimulated by both IL-1 and IL-1 plus IFN-γ. FIGURE B: IL-1 concentration dependence for smooth muscle cell nitrite production. Data points indicate nitrite produced during a 29-hour incubation with the indicated concentration of IL-1 alone (open circles) or in the presence of IL-1 plus 50 ng/mL IFN-γ (open triangles). All values are means ± SD for nitrite production by confluent smooth muscle cell monolayers grown in 96-well microtiter plates (60-80 X 10^3 cells per well; n = 3-4).
Experiments were conducted on healthy mongrel dogs that were free of microfilaria and weighed 25-28 kg each. […]

The subject of series [6] is Actinomycin D-Treated L929 Cells. Kind of series: Cytolytic activity of rh-TNF against L929 cells. To be noted: murine L929 cells. Type of series: cell-based, murine. As for the experimental part: TNF bioactivity was measured by the cytotoxicity towards murine L929 cells, in vitro. […]

On to `Cc1c2oc3c(C)ccc(C(=O)N[C@@H]4C(=O)N[C@H](C(C)C)C(=O)N5CCC[C@H]5C(=O)N(C)CC(=O)N(C)[C@@H](C(C)C)C(=O)O[C@@H]4C)c3nc-2c(C(=O)N[C@@H]2C(=O)N[C@H](C(C)C)C(=O)N3CCC[C@H]3C(=O)N(C)CC(=O)N(C)[C@@H](C(C)C)C(=O)O[C@@H]2C)c(N)c1=O` [dactinomycin] (I: T[dV]P[Sar][NMeV] / II: T[dV]P[Sar][NMeV]; ester I:1-I:C, II:1-II:C; linker I:N-II:N via Actinocin(9to1)), for which the viability in series [1] amounted to 101%. In series [2] (cells cultured 14 hours with IL-1 (100 ng/mL) and IFN-γ (50 ng/mL) plus 0.5 mg/mL dactinomycin or 1 mg/mL cycloheximide, then 16 hours in cytokine-free medium, control 2.52), the nitrite produced entry is on record as “less than 0.1 nmol”.

`C[C@@H]1C[C@@H]([C@H](O)CC2CC(=O)NC(=O)C2)C(=O)[C@@H](C)C1` [cycloheximide]: the nitrite produced result in series [2] was “less than 0.1 nmol”.

With `N=C(NN)NCCC[C@H](N)C(=O)O` [NAA, N^ω-amino-L-arginine], in series [3] (ET 2 mg/kg, multiple doses of NAA, then autopsied), the “survival of the animal” value came to 24 h. For the same compound, the “pathological changes in liver, lungs, heart, brain, bowel or kidney” value in series [3] (autopsy after 24 hours) is listed as “No pathological changes were observed”. Further, the “reversing the hypotension associated with TNF administration” value in series [4] is on record as “as effective as NMMA”. Further, the “systemic vascular resistance after injection of NAA, higher than baseline” value in series [5] (IL-1-treated dogs, average) is on record as 43%. Besides, the “MAP increase after NAA” value is 46 ± 9 mm Hg and 46 +/- 9 mm Hg in series [5] (anesthetized dogs (n = 4) made hypotensive with IL-1 50 µg/kg); 58% in series [5] (dogs given IL-1 50 µg/kg). Moreover, in series [5] (control dogs not given IL-1, NAA), the “average increase in MAP above baseline” value is 20.1 ± 3.8 mm Hg. Further, in series [5] (dogs given IL-1 50 µg/kg (MAP 80 ± 2 before NAA), NAA 20 mg/kg iv), the “MAP after NAA” value was 125 ± 8 mm Hg and 125 +/- 8 mm Hg. Moreover, in series [5] (dogs given IL-1 50 µg/kg, NAA 20 mg/kg), the “average increase of MAP following NAA above the pre-IL-1 baseline MAP” value is listed as 14.3 ± 7.7 mm. Further, the “reduction in cardiac output compared with that after IL-1” value in series [5] (dogs treated with IL-1, then NAA, P = .037) was 25.2%. In addition, the “cardiac output after NAA” value in series [5] (dogs treated with IL-1, then NAA, baseline 2.25, P = .204) amounted to 1.93 L/min. The “decrease in cardiac output” value in series [5] (dogs treated with NAA alone, P = .046) was determined as 29.2%. Besides, the “duration physiologically acceptable MAP readings maintained” value in series [5] (second and third injections of NAA (20 mg/kg), cytokine-treated dogs) was “up to 7 hours”. Also, in series [5] (single injections of NAA (20 mg/kg) in cytokine-treated dogs, no L-arginine), the “duration MAP maintained at baseline or higher levels” value was “up to 60 minutes”. The “effect on the cytolytic effect of TNF towards tumor cells in vitro” value in series [6] is listed as “did not alter”.
